Data from PMC5908784, “Extracellular loops 2 and 3 of the calcitonin receptor selectively modify agonist binding and efficacy” (Biochemical Pharmacology, 2018).
Where a chain is given by its changes, count along the chain named. Where a SMILES comes first, the peptide text is derived from it. Bridges are numbered along the chain shown (N, C = ends).

Experiments:
Test in all cases: Heterologous whole cell competition binding
Conditions in all cases: heterologous competition of 125I-sCT(8-32), whole cells, mean ± S.E.M., SEM
[1] = molecular target: T1, hCTR T295A (Homo sapiens, UniProt P30988, T295A)
T1 construct: c-Myc (N); expressed in transfected cells
T1 sequence (P30988 25-474 T295A): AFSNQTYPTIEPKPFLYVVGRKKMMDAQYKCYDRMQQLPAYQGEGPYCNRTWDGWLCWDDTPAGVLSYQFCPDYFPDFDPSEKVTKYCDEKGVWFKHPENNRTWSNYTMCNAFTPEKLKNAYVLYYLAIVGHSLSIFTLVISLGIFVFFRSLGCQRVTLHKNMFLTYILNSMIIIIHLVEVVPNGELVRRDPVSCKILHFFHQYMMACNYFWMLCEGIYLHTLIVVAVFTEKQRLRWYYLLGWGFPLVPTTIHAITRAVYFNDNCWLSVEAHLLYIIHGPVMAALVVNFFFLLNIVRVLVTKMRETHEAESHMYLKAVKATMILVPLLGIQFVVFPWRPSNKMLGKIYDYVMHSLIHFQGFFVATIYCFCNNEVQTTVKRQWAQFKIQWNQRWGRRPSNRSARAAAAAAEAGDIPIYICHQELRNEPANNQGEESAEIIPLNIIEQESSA
In short: (§1)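 Whole cells expressing each receptor mutant were incubated overnight with radioligand and competitor, after which unbound ligand was removed and bound radioactivity counted on a gamma counter. Inhibition values were corrected for radioligand occupancy by the Cheng-Prusoff equation and reported as pKi.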

[2] = molecular target: T2, hCTR Y284A (Homo sapiens, UniProt P30988, Y284A)
T2 construct: expressed in transfected cells
T2 sequence (P30988 25-474 Y284A): T1 sequence (P30988 25-474 T295A) with Y260A, A271T
In short: as §1

[3] = molecular target: T3, hCTR V283A (Homo sapiens, UniProt P30988, V283A)
T3 construct: expressed in transfected cells
T3 sequence (P30988 25-474 V283A): T1 sequence (P30988 25-474 T295A) with V259A, A271T
In short: as §1

[4] = molecular target: T4, hCTR F285A (Homo sapiens, UniProt P30988, F285A)
T4 construct: expressed in transfected cells
T4 sequence (P30988 25-474 F285A): T1 sequence (P30988 25-474 T295A) with F261A, A271T
In short: as §1

[5] = molecular target: T5, hCTR M367A (Homo sapiens, UniProt P30988, M367A)
T5 construct: c-Myc (N); expressed in transfected cells
T5 sequence (P30988 25-474 M367A): T1 sequence (P30988 25-474 T295A) with A271T, M343A
In short: as §1

Ki [1]: 32.4 nM | Ki [2]: 14.5 nM | Ki [3]: 15.1 nM | Ki [4]: 12 nM | Ki [5]: 21.4 nM
Compound: CSCC[C@H](NC(=O)CNC(=O)[C@H](CO)NC(=O)[C@H](Cc1ccccc1)NC(=O)[C@H](CCCNC(=N)N)NC(=O)[C@H](Cc1c[nH]cn1)NC(=O)[C@H](Cc1ccccc1)NC(=O)[C@H](CC(N)=O)NC(=O)[C@H](CC(N)=O)NC(=O)[C@H](CC(C)C)NC(=O)[C@H](CC(N)=O)NC(=O)[C@H](CCCNC(=N)N)NC(=O)[C@H](Cc1c[nH]c2ccccc12)NC(=O)[C@H](Cc1ccc(O)cc1)NC(=O)[C@H](C)NC(=O)[C@H](CO)NC(=O)[C@H](CC(C)C)NC(=O)[C@@H](NC(=O)[C@@H]1CSSC[C@H](N)C(=O)N[C@@H](CO)C(=O)N[C@@H](CC(N)=O)C(=O)N[C@@H](CC(C)C)C(=O)N[C@@H](CO)C(=O)N[C@@H]([C@@H](C)O)C(=O)N1)C(C)C)C(=O)NCC(=O)N[C@@H](Cc1ccccc1)C(=O)NCC(=O)N1CCC[C@H]1C(=O)N[C@@H](CCC(=O)O)C(=O)N[C@H](C(=O)N1CCC[C@H]1C(N)=O)[C@@H](C)O [pCT] (H-CSNLSTCVLSAYWRNLNNFHRFSGMGFGPETP-NH2; disulfide 1-7)
